# Data as given in patent US20230303510A1, “CYCLIZED ACETAMIDO DERIVATIVES AS DNA POLYMERASE THETA INHIBITORS” (Ideaya Biosciences, Inc., priority 2020, published 2023).
# Target: T1, Pol theta (residues 1819-2590) (Homo sapiens, UniProt O75417)
# T1 construct: Pol theta polymerase domain (residues 1819-2590) at a final concentration of 4 nM
# T1 sequence (O75417 1819-2590): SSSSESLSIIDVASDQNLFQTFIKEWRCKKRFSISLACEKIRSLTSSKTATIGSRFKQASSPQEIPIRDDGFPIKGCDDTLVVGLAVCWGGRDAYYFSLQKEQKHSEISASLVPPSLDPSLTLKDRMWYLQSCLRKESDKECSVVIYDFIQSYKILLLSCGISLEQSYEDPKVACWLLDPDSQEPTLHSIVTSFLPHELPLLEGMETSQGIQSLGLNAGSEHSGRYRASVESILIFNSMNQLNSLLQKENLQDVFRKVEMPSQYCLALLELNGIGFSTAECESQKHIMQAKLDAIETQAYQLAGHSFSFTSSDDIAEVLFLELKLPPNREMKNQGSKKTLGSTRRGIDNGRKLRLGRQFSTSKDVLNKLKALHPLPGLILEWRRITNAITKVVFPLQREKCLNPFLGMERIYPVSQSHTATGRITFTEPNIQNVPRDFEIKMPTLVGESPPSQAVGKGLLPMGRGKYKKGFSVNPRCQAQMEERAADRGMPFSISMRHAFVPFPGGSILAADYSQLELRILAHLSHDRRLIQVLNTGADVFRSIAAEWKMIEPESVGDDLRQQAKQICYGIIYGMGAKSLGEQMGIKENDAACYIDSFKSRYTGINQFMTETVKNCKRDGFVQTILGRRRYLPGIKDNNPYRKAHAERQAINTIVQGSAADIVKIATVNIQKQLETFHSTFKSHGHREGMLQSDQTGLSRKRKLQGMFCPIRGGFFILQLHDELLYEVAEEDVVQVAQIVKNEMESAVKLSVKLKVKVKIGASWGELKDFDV
# Assay: PPi assay (inhibition of polymerase activity of Pol theta, PPiLite luminescence)
# Format: biochemical
# Conditions: Pol theta 2.8 nM; luminescence kinetic mode 90 min
# Protocol: The ability of the compounds of Formula (I) or Formula (II) to inhibit polymerase activity of Pol theta was determined using the PPi assay as set forth below.
# A mixture of template DNA strand (SEQ ID NO:4: 5′ ATTACTGACCTCATACTTCTGCCCTTCCATGTTCTGTGCCCTCCTTCC 3′) and primer DNA strand (SEQ ID NO:5: 5′ GGA AGG AGG GCA CAG AAC 3′) was annealed in 10 mM Tris-HCl pH 8.0, […] buffer to form the primed DNA substrate. A 10-point dilution series of compounds were used in a 384 well format for the inhibition assay. Pol theta (residues 1819-2590) (2.8 nM) in assay buffer (20 mM Tris-HCl pH 7.8, 50 mM KCl, 10 mM MgCl2, 1 mM DTT, 0.01% BSA, 0.01% Tween-20) was transferred to the test wells (10 uL), except for the low control wells. The plate was then incubated at room temperature for 15 mins. An equal volume (10 μL) of dNTP substrate (40 μM) and primed DNA substrate (800 nM) in assay buffer was added to all the test wells. 20 μL of PPi detection reagent (PPiLite inorganic pyrophosphate assay, Lonzo) was then added to all test wells. The plate was then centrifuged at 1000 rpm for 1 min. The reaction was monitored in a Tecan M1000 Pro plate reader in luminescence kinetic mode for 90 min. The high control (DMSO with enzyme) with high luminescence represents no inhibition of the polymerase reaction while the low control (DMSO with buffer) with low luminescence represents full inhibition of the polymerase activity. Slope of the reaction progress curves were used to calculate the rate of polymerization. The rates were used to determine the percent inhibition using a four-parameter inhibition model to generate IC50, Hill slope, maximum inhibition, and minimum inhibition.
row,Structure (SMILES),IC50
1,"O=C([C@@H]1CCCN1c1cc(C(F)(F)F)cc(C(F)(F)F)n1)N(c1ccc(F)cc1)C1COC1 [1.030, (S)-1-(4,6-bis(trifluoromethyl)pyridin-2-yl)-N-(4-fluorophenyl)-N-(oxetan-3-yl)pyrrolidine-2-carboxamide]",≤ 200 nM
2,"CN(C(=O)[C@@H]1CCN1c1nc(C(F)(F)F)cc(C(F)(F)F)c1C#N)c1ccc(F)cc1 [1.025, (S)-1-(3-cyano-4,6-bis(trifluoromethyl)pyridin-2-yl)-N-(4-fluorophenyl)-N-methylazetidine-2-carboxamide]",≤ 200 nM
3,"C[C@@H]1CC[C@@H](C(=O)N(C)c2ccc(F)cc2)N1c1cc(C(F)(F)F)cc(C(F)(F)F)n1 [1.023, (2S,5R)-1-(4,6-bis(trifluoromethyl)pyridin-2-yl)-N-(4-fluorophenyl)-N,5-dimethylpyrrolidine-2-carboxamide]",500 to 1000 nM
4,"CN(C(=O)[C@@H]1[C@H](O)CCN1c1cc(C(F)(F)F)cc(C(F)(F)F)n1)c1ccc(F)cc1 [1.029, (2S,3R)-1-(4,6-bis(trifluoromethyl)pyridin-2-yl)-N-(4-fluorophenyl)-3-hydroxy-N-methylpyrrolidine-2-carboxamide]",≤ 200 nM
5,"Fc1ccc(-c2cccnc2[C@@H]2CCCN2c2cc(C(F)(F)F)cc(C(F)(F)F)n2)cc1 [1.026, (S)-2-(2-(3-(4-fluorophenyl)pyridin-2-yl)pyrrolidin-1-yl)-4,6-bis(trifluoromethyl)pyridine]",≤ 200 nM
6,"O=C([C@@H]1CCCN1c1cc(C(F)(F)F)cc(C(F)(F)F)n1)N(c1ccccc1)c1ccccc1 [1.028, (S)-1-(4,6-bis(trifluoromethyl)pyridin-2-yl)-N,N-diphenylpyrrolidine-2-carboxamide]",1000 to 10000 nM
7,"Fc1ccc(-c2cccnc2[C@H]2CCCN2c2cc(C(F)(F)F)cc(C(F)(F)F)n2)cc1 [1.027, (R)-2-(2-(3-(4-fluorophenyl)pyridin-2-yl)pyrrolidin-1-yl)-4,6-bis(trifluoromethyl)pyridine]",1000 to 10000 nM
8,"C[C@H]1CC[C@@H](C(=O)N(C)c2ccc(F)cc2)N1c1cc(C(F)(F)F)cc(C(F)(F)F)n1 [1.021, (2S,5S)-1-(4,6-bis(trifluoromethyl)pyridin-2-yl)-N-(4-fluorophenyl)-N,5-dimethylpyrrolidine-2-carboxamide]",≤ 200 nM

# Target: T2, Pol theta polymerase domain (residues 1819-2590) (Homo sapiens, UniProt O75417)
# T2 construct: Pol theta polymerase domain (residues 1819-2590) at a final concentration of 4 nM
# T2 sequence (O75417 1819-2590): T1 sequence (O75417 1819-2590)
# Assay: Primer extension assay (inhibition of polymerase activity of Pol theta, molecular beacon fluorescence)
# Format: biochemical
# Conditions: Pol theta polymerase domain 4 nM; fluorescence change over 30 min
# Protocol: The ability of the compounds of Formula (I) or Formula (II) to inhibit polymerase activity of Pol theta was determined using the primer extension assay as set forth below.
# A mixture of 20 uL of Pol theta polymerase domain (residues 1819-2590) at a final concentration of 4 nM in assay buffer (20 m M TRIS, pH 7.80, 50 mM KCl, 10 mM MgCl2, 1 mM DTT, 0.01% BSA, 0.01% Tween20) was added to test compounds (11-point dilution series of test compounds) except the low control wells without test compounds. The above enzyme and test compound inhibitor mixture was then incubated at room temperature for 15 min. An equal volume (20 μl) of dNTP substrate mixture (48 μM) and primed molecular beacon DNA (obtained by annealing template SEQ ID NO:2: (5′-CCTTCCTCCCGTGTCTTG-TACCTTCCCGTCA-GGAGGAAGG-3′) with 5′-TAMRA and 3′-BHQ and primer DNA (SEQ ID NO:3; 5′-GACGGGAAGG-3′) in 10 mM Tris-HCl pH 8.0, 100 mM NaCl buffer) (96 nM) in assay buffer was added to all the test wells. The inhibition activity was measured by monitoring the fluorescence change over 30 min at 535 nm upon excitation at 485 nm. The high control (DMSO with enzyme) with high fluorescence intensity represents no inhibition of polymerase reaction while the low control (DMSO with buffer) with low fluorescence intensity represents full inhibition of polymerase activity. Slope of the reaction progress curves were used to calculate the rate of polymerization. The rates were used to determine the percent inhibition using a four-parameter inhibition model to generate IC50, Hill slope and max inhibition.
row,Structure (SMILES),IC50
1,"CN(C(=O)C1CCN1c1cc(C(F)(F)F)cc(C(F)(F)F)n1)c1ccc(F)cc1 (stereo not drawn) [1.005, 1-(4,6-bis(trifluoromethyl)pyridin-2-yl)-N-(4-fluorophenyl)-N-methylazetidine-2-carboxamide]",≤ 200 nM
2,"CN(C(=O)[C@@H]1CCCN1c1cc(C(F)(F)F)cc(C(F)(F)F)n1)c1ccc2occc2c1 [1.010, (S)-N-(benzofuran-5-yl)-1-(4,6-bis(trifluoromethyl)pyridin-2-yl)-N-methylpyrrolidine-2-carboxamide]",≤ 200 nM
3,"CN(C(=O)C1CCCN1c1cc(C(F)(F)F)cc(C(F)(F)F)n1)c1ccc(F)cc1 (stereo not drawn) [1.001, 1-(4,6-bis(trifluoromethyl)pyridin-2-yl)-N-(4-fluorophenyl)-N-methylpyrrolidine-2-carboxamide]",≤ 200 nM
4,"Cc1cc(C)nc(N2CCC[C@H]2C(=O)N(C)c2ccc(F)cc2)c1 [1.031, (S)-1-(4,6-dimethylpyridin-2-yl)-N-(4-fluorophenyl)-N-methylpyrrolidine-2-carboxamide]",200 to 500 nM
5,"CN(C(=O)[C@@H]1CCCN1c1cc(C(F)(F)F)ccn1)c1ccc(F)cc1 [1.014, (S)-N-(4-fluorophenyl)-N-methyl-1-(4-(trifluoromethyl)pyridin-2-yl)pyrrolidine-2-carboxamide]",≤ 200 nM
6,"Fc1ccc(-c2cccnc2C2CCCN2c2cc(C(F)(F)F)cc(C(F)(F)F)n2)cc1 (stereo not drawn) [1.008, 2-(2-(3-(4-fluorophenyl)pyridin-2-yl)pyrrolidin-1-yl)-4,6-bis(trifluoromethyl)pyridine]",≤ 200 nM
7,"CN(C(=O)[C@@H]1CCCN1c1cc(C(F)(F)F)cc(C(F)(F)F)n1)c1cccc(C#N)c1 [1.018, (S)-1-(4,6-bis(trifluoromethyl)pyridin-2-yl)-N-(3-cyanophenyl)-N-methylpyrrolidine-2-carboxamide]",≤ 200 nM
8,"O=C([C@@H]1CCCN1c1cc(C(F)(F)F)cc(C(F)(F)F)n1)N(c1ccc(F)cc1)C1CC1 [1.012, (S)-1-(4,6-bis(trifluoromethyl)pyridin-2-yl)-N-cyclopropyl-N-(4-fluorophenyl)pyrrolidine-2-carboxamide]",≤ 200 nM
9,"CN(C(=O)C1CCCN1c1ccccc1)c1ccccc1 (stereo not drawn) [1.004, N-methyl-N,1-diphenylpyrrolidine-2-carboxamide]",1000 to 10000 nM
10,"CN(C(=O)C1CCCCN1c1cc(C(F)(F)F)cc(C(F)(F)F)n1)c1ccc(F)cc1 (stereo not drawn) [1.007, 1-(4,6-bis(trifluoromethyl)pyridin-2-yl)-N-(4-fluorophenyl)-N-methylpiperidine-2-carboxamide]",≤ 200 nM
11,"CN(C(=O)C1CCCN1c1nc(C(F)(F)F)cc(C(F)(F)F)n1)c1ccc(F)cc1 (stereo not drawn) [1.017, 1-(4,6-bis(trifluoromethyl)pyrimidin-2-yl)-N-(4-fluorophenyl)-N-methylpyrrolidine-2-carboxamide]",≤ 200 nM
12,"CN(C(=O)[C@@H]1C[C@@H](O)CN1c1cc(C(F)(F)F)cc(C(F)(F)F)n1)c1ccc(F)cc1 [1.016, (2S,4R)-1-(4,6-bis(trifluoromethyl)pyridin-2-yl)-N-(4-fluorophenyl)-4-hydroxy-N-methylpyrrolidine-2-carboxamide]",≤ 200 nM
13,"CN(C(=O)[C@@H]1CCCN1c1cccc(C(F)(F)F)n1)c1ccc(F)cc1 [1.015, (S)-N-(4-fluorophenyl)-N-methyl-1-(6-(trifluoromethyl)pyridin-2-yl)pyrrolidine-2-carboxamide]",≤ 200 nM
14,"CN(C(=O)[C@@H]1CCCN1c1cc(C(F)(F)F)cc(C(F)(F)F)n1)c1ccncc1 [1.011, (S)-1-(4,6-bis(trifluoromethyl)pyridin-2-yl)-N-methyl-N-(pyridin-4-yl)pyrrolidine-2-carboxamide]",≤ 200 nM
15,"CN(C(=O)[C@@H]1C[C@H](O)CN1c1cc(C(F)(F)F)cc(C(F)(F)F)n1)c1ccc(F)cc1 [1.013, (2S,4S)-1-(4,6-bis(trifluoromethyl)pyridin-2-yl)-N-(4-fluorophenyl)-4-hydroxy-N-methylpyrrolidine-2-carboxamide]",≤ 200 nM
16,"CN(C(=O)[C@@H]1CCCN1c1cc(C(F)(F)F)cc(C(F)(F)F)n1)c1ccc(Br)cc1 [1.009, (S)-1-(4,6-bis(trifluoromethyl)pyridin-2-yl)-N-(4-bromophenyl)-N-methylpyrrolidine-2-carboxamide]",≤ 200 nM
